What was measured:
[1] = test system: HIF1a protein in H9c2 rat cardiomyocytes; assay: Cell-based HIF-alpha stabilization assay (inhibition of PHD in cells); conditions: 24 hrs compound incubation, HIF1a protein by ELISA; for EC50: Rattus norvegicus, H9c2, 24 h, read-out: Inhibition of PHD in cells (pEC50) (converted)
Procedure, shortened: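 HIF1a stabilization was measured by ELISA on lysates of H9c2 rat cardiomyocytes after 24 h exposure to 11 serial compound concentrations, expressed relative to the desferrioxamine maximum. Curve fits gave EC50. EC50pos denotes the concentration producing half the desferrioxamine maximal response.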

[2] = target: PHD2 enzyme (residues 181-417) (Homo sapiens (Human), UniProt Q9GZT9); assay: Inhibition of PHD enzyme (LC/MS peptide hydroxylation assay); type: biochemical; conditions: PHD2 (residues 181-417) 5 nM, 60 min pre-incubation, -log(IC50), IC50 molar
Procedure, shortened: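 Hydroxylated peptide quantified by LC/MS after 60 min turnover of 1 uM biotinylated peptide with 2 uM 2-oxoglutarate and 1 mM ascorbate, stopped by excess tight-binding inhibitor. Beforehand, 5 nM enzyme and compound were preincubated 60 min at RT, pH 7.3 HEPES/KCl/TCEP/FeCl2/BSA buffer. Values as pIC50 (−log molar IC50).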

PHD2 enzyme (residues 181-417), sequence (Q9GZT9 181-417): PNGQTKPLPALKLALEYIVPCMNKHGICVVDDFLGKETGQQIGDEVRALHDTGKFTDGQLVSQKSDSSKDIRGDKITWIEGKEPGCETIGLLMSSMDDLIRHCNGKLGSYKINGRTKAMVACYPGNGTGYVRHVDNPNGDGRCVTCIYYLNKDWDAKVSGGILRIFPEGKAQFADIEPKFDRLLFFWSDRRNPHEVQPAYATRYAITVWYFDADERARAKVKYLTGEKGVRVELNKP

PHD Inhibition (pIC50) [2]	IC50 ([2]; read-out: PHD Inhibition (pIC50) (converted))	Structure (SMILES)	EC50 [1]	Inhibition of PHD in cells (pEC50) [1]
8.50	–	Cc1c(-c2cnn(-c3ccc(C(=O)N4CCN(C)[C@@H](C)C4)cn3)c2O)ccc(C#N)c1F [Example 329, (S)-4-(1-(5-(3,4-dimethylpiperazine-1-carbonyl)pyridin-2-yl)-5-hydroxy-1H-pyrazol-4-yl)-2-fluoro-3-methylbenzonitrile]	331 nM	–
8.10	–	Cc1cc(C#N)ccc1-c1cnn(-c2ccc(C(=O)N3CC[C@@H](N(C)C)C3)cn2)c1O [Example 413, (R)-4-(1-(5-(3-(dimethylamino)pyrrolidine-1-carbonyl)pyridin-2-yl)-5-hydroxy-1H-pyrazol-4-yl)-3-methylbenzonitrile]	2090 nM	–
8.29	–	Cc1cc(C#N)ccc1-c1cnn(-c2ccc(C(=O)N3CCN(C)C4(CC4)C3)cn2)c1O [Example 390, 4-(5-hydroxy-1-(5-(4-methyl-4,7-diazaspiro[2.5]octane-7-carbonyl)pyridin-2-yl)-1H-pyrazol-4-yl)-3-methylbenzonitrile]	955 nM	–
8.34	–	CCN1CCN(C(=O)c2ccc(-n3ncc(-c4ccc(C#N)c(F)c4C)c3O)nc2)[C@H](C)C1 [Example 330, (R)-4-(1-(5-(4-ethyl-2-methylpiperazine-1-carbonyl)pyridin-2-yl)-5-hydroxy-1H-pyrazol-4-yl)-2-fluoro-3-methylbenzonitrile]	407 nM	–
7.701	–	CCC(CC)N1CCN(C(=O)c2ccc(-n3ncc(-c4ccc(C#N)cc4C)c3O)nc2)CC1 [Example 369, 4-(5-hydroxy-1-(5-(4-(pentan-3-yl)piperazine-1-carbonyl)pyridin-2-yl)-1H-pyrazol-4-yl)-3-methylbenzonitrile]	1200 nM	–
8.01	–	COCCCNC(=O)c1ccc(-n2ncc(-c3c(C)cc(C#N)cc3F)c2O)nc1 [Example 404, 6-(4-(4-cyano-2-fluoro-6-methylphenyl)-5-hydroxy-1H-pyrazol-1-yl)-N-(3-methoxypropyl)nicotinamide]	631 nM	–
7.91	–	Cc1cc(C#N)ccc1-c1cnn(-c2ccc(C(=O)N3CCC[C@@H](N4CCCC4)C3)cn2)c1O [Example 387, (R)-4-(5-hydroxy-1-(5-(3-(pyrrolidin-1l-yl)piperidine-1-carbonyl)pyridin-2-yl)-1H-pyrazol-4-yl)-3-methylbenzonitrile]	871 nM	–
8.05	–	Cc1cc(C#N)ccc1-c1cnn(-c2ccc(C(=O)N3CCC4(CN(C)C4)C3)cn2)c1O [Example 293, 4-(5-hydroxy-1-(5-(2-methyl-2,6-diazaspiro[3.4]octane-6-carbonyl)pyridin-2-yl)-1H-pyrazol-4-yl)-3-methylbenzonitrile]	324 nM	–
7.17	–	CC(NC(=O)c1ccc(-n2ncc(-c3ccc(C#N)cc3)c2O)nc1)C1CC1 (stereo in doubt) [Example 260, (S)-6-(4-(4-cyanophenyl)-5-hydroxy-1H-pyrazol-1-yl)-N-(1-cyclopropylethyl)nicotinamide]	–	6.23
8.44	–	Cc1cc(C#N)ccc1-c1cnn(-c2ccc(C(=O)N3CCN(C)C(C)(C)C3)cn2)c1O [Example 377, 4-(5-hydroxy-1-(5-(3,3,4-trimethylpiperazine-1-carbonyl)pyridin-2-yl)-1H-pyrazol-4-yl)-3-methylbenzonitrile]	813 nM	–
8.63	–	Cc1cc(C#N)c(F)cc1-c1cnn(-c2ccc(C(=O)N3CCN(C)C4(CC4)C3)cn2)c1O [Example 399, 2-fluoro-4-(5-hydroxy-1-(5-(4-methyl-4,7-diazaspiro[2.5]octane-7-carbonyl)pyridin-2-yl)-1H-pyrazol-4-yl)-5-methylbenzonitrile]	1700 nM	–
–	14.1 nM	CCN(C)CC1CCN(C(=O)c2ccc(-n3ncc(-c4ccc(C#N)cc4C)c3O)nc2)C1 (racemic) [Example 295, (+/−)-4-(1-(5-(3-((ethyl(methyl)amino)methyl)pyrrolidine-1-carbonyl)pyridin-2-yl)-5-hydroxy-1H-pyrazol-4-yl)-3-methylbenzonitrile]	339 nM	–
7.87	–	Cc1cc(C#N)ccc1-c1cnn(-c2ccc(C(=O)N(C3CC3)C3CCN(C)CC3)cn2)c1O [Example 420, 6-(4-(4-cyano-2-methylphenyl)-5-hydroxy-1H-pyrazol-1-yl)-N-cyclopropyl-N-(1-methylpiperidin-4-yl)nicotinamide]	537 nM	–
8.41	–	CCCN1CCN(C(=O)c2ccc(-n3ncc(-c4ccc(C#N)cc4C)c3O)nc2)CC1 [Example 415, 4-(5-hydroxy-1-(5-(4-propylpiperazine-1-carbonyl)pyridin-2-yl)-1H-pyrazol-4-yl)-3-methylbenzonitrile]	–	6.20
8.24	–	COCCCNC(=O)c1ccc(-n2ncc(-c3ccc(C#N)c(C)c3C)c2O)nc1 [Example 409, 6-(4-(4-cyano-2,3-dimethylphenyl)-5-hydroxy-1H-pyrazol-1-yl)-N-(3-methoxypropyl)nicotinamide]	257 nM	–
8.17	–	Cc1c(-c2cnn(-c3ccc(C(=O)N4CCC[C@@H](N(C)C)C4)cn3)c2O)ccc(C#N)c1F [Example 319, (R)-4-(1-(5-(3-(dimethylamino)piperidine-1-carbonyl)pyridin-2-yl)-5-hydroxy-1H-pyrazol-4-yl)-2-fluoro-3-methylbenzonitrile]	537 nM	–

The next lines start with the compound.

Structure (SMILES)	PHD Inhibition (pIC50) [2]	IC50 ([2]; read-out: PHD Inhibition (pIC50) (converted))	EC50 [1]	Inhibition of PHD in cells (pEC50) [1]
COc1cc(-c2cnn(-c3ccc(C(=O)NC4CCC4)cn3)c2O)ccn1 [Example 13, N-cyclobutyl-6-(5-hydroxy-4-(2-methoxypyridin-4-yl)-1H-pyrazol-1-yl)nicotinamide]	7.15	–	417 nM	–
Cc1cc(C#N)ccc1-c1cnn(-c2ccc(C(=O)NCCC3CCOCC3)cn2)c1O [Example 64, 6-(4-(4-cyano-2-methylphenyl)-5-hydroxy-1H-pyrazol-1-yl)-N-(2-(tetrahydro-2H-pyran-4-yl)ethyl)nicotinamide]	7.25	–	158 nM	–
COCC(C)(C)NC(=O)c1ccc(-n2ncc(-c3ccnc(OC)c3)c2O)nc1 [Example 17, 6-(5-hydroxy-4-(2-methoxypyridin-4-yl)-1H-pyrazol-1-yl)-N-(1-methoxy-2-methylpropan-2-yl)nicotinamide]	7.03	–	347 nM	–
C[C@H](NC(=O)c1ccc(-n2ncc(-c3ccc(C#N)cc3)c2O)nc1)C(F)(F)F [Example 171, (S)-6-(4-(4-cyanophenyl)-5-hydroxy-1H-pyrazol-1-yl)-N-(1,1,1-trifluoropropan-2-yl)nicotinamide]	7.18	–	1450 nM	–
COc1cc(-c2cnn(-c3ccc(C(=O)NCCO)cn3)c2O)ccn1 [Example 25, 6-(5-hydroxy-4-(2-methoxypyridin-4-yl)-1H-pyrazol-1-yl)-N-(2-hydroxyethyl)nicotinamide]	7.1	–	4470 nM	–
Cc1cc(C#N)ccc1-c1cnn(-c2ccc(C(=O)NCC3CCN(C)CC3)cn2)c1O [Example 94, 6-(4-(4-cyano-2-methylphenyl)-5-hydroxy-1H-pyrazol-1-yl)-N-((1-methylpiperidin-4-yl)methyl)nicotinamide]	7.9	–	93.3 nM	–
N#Cc1ccc(-c2cnn(-c3ccc(C(=O)N4CCOCC4)cn3)c2O)cc1 [Example 123, 4-(5-hydroxy-1-(5-(morpholine-4-carbonyl)pyridin-2-yl)-1H-pyrazol-4-yl)benzonitrile]	7.16	–	4790 nM	–
COCCC(C)NC(=O)c1ccc(-n2ncc(-c3ccc(C#N)cc3)c2O)nc1 (stereo not shown) [Example 176, 6-(4-(4-cyanophenyl)-5-hydroxy-1H-pyrazol-1-yl)-N-(4-methoxybutan-2-yl)nicotinamide]	7.53	–	398 nM	–
COCCC(C)(C)NC(=O)c1ccc(-n2ncc(-c3ccc(C#N)cc3)c2O)nc1 [Example 175, 6-(4-(4-cyanophenyl)-5-hydroxy-1H-pyrazol-1-yl)-N-(4-methoxy-2-methylbutan-2-yl)nicotinamide]	7.37	–	490 nM	–
CN1CCC(CNC(=O)c2ccc(-n3ncc(-c4ccc(C#N)cc4)c3O)nc2)CC1 [Example 57, 6-(4-(4-cyanophenyl)-5-hydroxy-1H-pyrazol-1-yl)-N-((1-methylpiperidin-4-yl)methyl)nicotinamide]	6.98	–	–	5.70
N#Cc1ccc(-c2cnn(-c3ccc(C(=O)NCCCn4cccn4)cn3)c2O)cc1 [Example 117, N-(3-(1H-pyrazol-1-yl)propyl)-6-(4-(4-cyanophenyl)-5-hydroxy-1H-pyrazol-1-yl)nicotinamide]	7.44	–	646 nM	–
COc1cc(-c2cnn(-c3ccc(C(=O)NCC4CN(C)CCO4)cn3)c2O)ccn1 (stereo not shown) [Example 46, 6-(5-hydroxy-4-(2-methoxypyridin-4-yl)-1H-pyrazol-1-yl)-N-((4-methylmorpholin-2-yl)methyl)nicotinamide]	7.8	–	1350 nM	–
Cc1cc(C#N)ccc1-c1cnn(-c2ccc(C(=O)NCCC3CCOC3)cn2)c1O (stereo not shown) [Example 66, 6-(4-(4-cyano-2-methylphenyl)-5-hydroxy-1H-pyrazol-1-yl)-N-(2-(tetrahydrofuran-3-yl)ethyl)nicotinamide]	7.22	–	120 nM	–
